Measurements: US5405843A, “Quinoline derivatives” (Mitsui Toatsu Chemicals, Incorporated, priority 1988, dated 1995)

Columns and labels:
[1] = tested on: Vincristine-resistant strain P388/VCR cells of mouse leukemia P388 cells; experiment: Potentiating effect on vincristine in mice having vincristine-resistant mouse leukemia (survival); type: in vivo, mouse (female CDFI mice); conditions: peritoneal, once a day for 5 days; for T/C (rate of life prolongation): control = 100
[2] = tested on: Adriamycin resistant strain 2780 AD cells of human ovarian cancer A2780 cells; experiment: Potentiating effect on incorporation of 3H-vincristine into adriamycin-resistant cancer cells; type: cell-based; conditions: Homo sapiens, 2780AD, 2 h, 20 nM 3H-vincristine, control = 100, read-out: 3H-vincristine accumulation; for activity at 1 µg/mL: compound 1 μg/ml; for activity at 10 µg/mL: compound 10 μg/ml
In short: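 Cells at 1×10^6/ml were grown 24 h, then incubated 2 h at 37 °C in RPMI-1640 with 20 nM ^3H-vincristine, 5% FCS and compound (solution at 1.0 or 10.0 μg/ml). After washing and lysis in 0.2N NaOH, cellular ^3H-vincristine was counted by scintillation.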

[3] = tested on: Adriamycin resistant strain K562/ADM cells of human myeloleukemia K562 cells; experiment: Potentiating effect on activity of vincristine against adriamycin-resistant cells (growth inhibition); type: cell-based; conditions: for effect in potentiating vincristine activity, multiples of the control: ratio to control IC50 655
Description: Potentiating Effect of the Compounds on Activity of Anticancer Drugs

[4] = tested on: drug-resistant cancer cells; conditions: calcium antagonists such as verapamil; cited from earlier work
[5] = compound 3 mg/kg + vincristine 100 ug/kg
[6] = compound 10 mg/kg + vincristine 100 ug/kg
[7] = compound 30 mg/kg + vincristine 100 ug/kg

| SMILES | Average surviving period [1, 5] [days] | T/C (rate of life prolongation) [1, 5] [%] | Average surviving period [1, 6] [days] | T/C (rate of life prolongation) [1, 6] [%] | Average surviving period [1, 7] [days] | T/C (rate of life prolongation) [1, 7] [%] | activity at 1 µg/mL [2] [%] | activity at 10 µg/mL [2] [%] | effect in potentiating vincristine activity, multiples of the control ([3]; compound 0.3 μg/ml) | effect in potentiating vincristine activity, multiples of the control ([3]; compound 1 μg/ml) | effect in potentiating vincristine activity, multiples of the control ([3]; compound 3 μg/ml) | IC50 ([3]; Homo sapiens, K562, read-out: IC50 (vincristine concentration at which 50% of the growth was inhibited)) [µg/mL] | prevention of discharge of anticancer drugs from cancer cells [4] |
| --- | --- | --- | --- | --- | --- | --- | --- | --- | --- | --- | --- | --- | --- |
| OC(COc1cccc2ncccc12)CN1CCN(C(c2ccccc2)c2ccccc2)CC1 (stereo not shown) [Example 1, 5-[3-(4-Diphenylmethylpiperazine-1-yl)-2-hydroxypropoxy]quinoline] | 12.4 ± 0.2 | 111 | 12.2 ± 0.4 | 109 | 12.8 ± 0.4 | 114 | 717 | 747 | 151.2 | 342.1 | 433.3 | – | – |
| OC(COc1cccc2ncccc12)CN1CCN(C2c3ccccc3CCc3ccccc32)CC1 (stereo not shown) [Example 2, 5-[3-(4-(Dibenzosuberane-5-yl)piperazine-1-yl)-2-hydroxypropoxy]quinoline] | 12.6 ± 0.2 | 113 | – | – | 15.2 ± 0.7 | 136 | 663 | 709 | 330.3 | 388.0 | 550.0 | – | – |
| CC[C@]1(O)C[C@H]2CN(CCc3c([nH]c4ccccc34)[C@@](C(=O)OC)(c3cc4c(cc3OC)N(C=O)[C@H]3[C@@](O)(C(=O)OC)[C@H](OC(C)=O)[C@]5(CC)C=CCN6CC[C@]43[C@@H]65)C2)C1 [Vincristine, vincristine, reference compound] | – | – | – | – | – | – | – | – | – | – | – | 0.655 | – |
| COc1ccc(CCN(C)CCCC(C#N)(c2ccc(OC)c(OC)c2)C(C)C)cc1OC (stereo not shown) [verapamil] | – | – | – | – | – | – | – | – | – | – | – | – | prevent discharge of anticancer drugs from cancer cells |
